# Patent US20220062296A1, “COMBINATIONS OF GABAA ALPHA 5 AGONISTS AND SV2A INHIBITORS AND METHODS OF USING IN THE TREATMENT OF COGNITIVE IMPAIRMENT” (AGENEBIO, INC., priority 2020, published 2022)
# Legend:
# Type in all cases: in vivo, rat
# aged-impaired rats [1] = assay: Radial arm maze, Compound 1 IP alone and in combination with levetiracetam
# aged-impaired rats [2] = assay: Radial arm maze with 5-hr delay, acute Compound 1 via PO; conditions: Compound 1 10 mg/kg PO, vs vehicle
# Protocol: Food-deprived aged rats maintained at approximately 85% free-feeding weights were tested for their hippocampal-dependent memory in a radial arm maze task under varying doses of Compound 1 (a GABAA α5 receptor agonist):
# The radial arm maze apparatus used consisted of eight equidistantly spaced arms. An elevated maze arm (7 cm width×75 cm length) projected from each facet of an octagonal center platform (30 cm diameter, 51.5 cm height). Clear side walls on the arms were 10 cm high and are angled at 65° to form a trough. A food well (4 cm diameter, 2 cm deep) was located at the distal end of each arm. Froot Loops™ (Kellogg Company) were used as rewards. Blocks constructed of Plexiglass™ (30 cm height×12 cm width) could be positioned to prevent entry to any arm. Numerous extra maze cues surrounding the apparatus were also provided. The rats were initially subjected to pre-training (Chappell et al., 1998). Pre-training consisted of a habituation phase, a training phase on the standard win-shift task and another training phase in which a progressively longer delay was imposed between presentation of a subset of arms designated by the experimenter (five arms available and three arms blocked) and completion of the eight-arm win-shift task (i.e., with all eight arms available).
# In the habituation phase, rats were familiarized to the maze for a 10-minute session on several days. […]
# aged-impaired rats [3] = assay: Water maze probe test, acute and chronic Compound 1
# Source text: Rats were trained and tested in a novel water maze environment to assess the effect of the treatments. The water maze used here was housed in a different room and was surrounded by curtains with a novel set of patterns relative to the maze used for initial assessment of cognitive status. The training and testing protocol used was identical to the spatial learning-activated protocol described in Haberman et al., (2008, Proceedings of the National Academy of Sciences USA, 105, 10601-10606). The task required rats to swim to a […] escape platform at a fixed location in the presence of spatial cues for 8 training trials with an inter-trial interval of 8 min. An hour after the last training trial, rats were given a probe test in the absence of the escape platform (free swim) to assess the memory of the platform location as measured by time spent searching at the target location.
# To assess the acute and chronic effects of Compound 1 treatment, rats received 15-16 days of drug injections with assessment on the water maze on the first day (acute effect) and last day (chronic effect) of treatment. Different surrounding spatial cues and escape location in the water maze were used for the initial and subsequent assessments. Compound 1 was given at 10 mg/kg using intraperitoneal injection (IP) at a volume of 1 ml/kg. […]
compound,measurement,setting,value
COCc1nnc2n1Cc1c(C#Cc3cnc(OC)s3)ncn1-c1ccc(Cl)cc1-2 [Compound 1],efficacy of Compound 1 on its own in the radial arm maze,aged-impaired rats [1]; 2.5 mg/kg IP,subtherapeutic
same,efficacy of Compound 1 on its own in the radial arm maze,aged-impaired rats [1]; 5 mg/kg IP,subtherapeutic
same,number of errors in the radial arm maze,aged-impaired rats [2],fewer errors
same,time in the target quadrant of the Morris Water Maze,"aged-impaired rats [3]; acute, Compound 1 10 mg/kg IP (first day)",spent more time in the target quadrant
same,time in the target quadrant of the Morris Water Maze,"aged-impaired rats [3]; chronic, Compound 1 10 mg/kg IP (last day of 15-16 days)",spent more time in the target quadrant
